According to publication PMC10226046, “Prodrug Strategies for the Development of β-L-5-((E)-2-Bromovinyl)-1-((2S,4S)-2-(hydroxymethyl)-1,3-(dioxolane-4-yl))uracil (L-BHDU) against Varicella Zoster Virus (VZV)” (Journal of Medicinal Chemistry, 2023):
Like-named read-outs stand apart in the source and are kept apart here.

Columns and labels:
[1] = design: method as in PMID 25051026; settings: mice treated with L-BHDU; cited from earlier work
[2] = mouse, in vivo; cited from earlier work
[3] = tested on: human foreskin fibroblasts (HFFs); design: method as in PMID 25051026; settings: cited from earlier work
VZV-ORF57-ΔTK = experiment: microbe, parasite or virus in culture; format: cell-based, Varicella zoster virus; settings: Human alphaherpesvirus 3, ARPE-19
VZV-ORF57-Luc [4] = experiment: microbe, parasite or virus in culture; settings: Human alphaherpesvirus 3, ARPE-19, cell-free VZV-ORF57-Luc, ARPE-19 cells, 72 hpi, bioluminescence imaging
[5] = design: method as in PMID 25051026; settings: measured in various mouse organs; cited from earlier work
VZV-ORF57-Luc [6] = tested on: VZV-ORF57-Luc
VZV [7] = settings: 15 mg/kg/day, SCID-hu mouse with human fetal skin xenografts; cited from earlier work
VZV-ORF57-Luc [8] = experiment: microbe, parasite or virus in culture; format: cell-based, Varicella zoster virus; settings: Human alphaherpesvirus 3, ARPE-19
VZV-ORF57-ΔTKTS = experiment: microbe, parasite or virus in culture; format: cell-based, Varicella zoster virus; settings: Human alphaherpesvirus 3, ARPE-19
[9] = Neutral red dye uptake cytotoxicity assay in ARPE-19 cells; settings: human
VZV-ORF57-ΔTS = experiment: microbe, parasite or virus in culture; format: cell-based, Varicella zoster virus; settings: Human alphaherpesvirus 3, ARPE-19
[10] = Oral pharmacokinetic absorption study in BALB/c mice (plasma, LC-MS/MS); format: in vivo; settings: both sexes, mouse, analyte L-BHDU in plasma, 11.4 mg/kg L-BHDU oral, BALB/c mice
Procedure: A pharmacokinetic absorption study was performed in BALB/c mice (Charles River). A single equimolar dose of 22.5 mg/kg POM-L-BHDU-MP or 11.4 mg/kg L-BHDU was dissolved in Cremophor–dimethyl sulfoxide (DMSO)–saline (1:1:8) and administered by oral gavage to two groups of mice with equal numbers of male and female mice (N = 15 each male and female).
Plasma was separated from red blood cells and immediately frozen at −80 °C.
This animal protocol #282 was approved by the IACUC at SUNY Upstate Medical University, which has been fully accredited by AAALAC since 7/31/1999. This method was previously used to evaluate L-BHDU effects on 5-fluorouracil metabolism.[16] Briefly, a single equimolar dose of 22.5 mg/kg POM-L-BHDU-MP or 11.4 mg/kg L-BHDU was dissolved in Cremophor–DMSO–saline (1:1:8) and administered by oral gavage to two groups of BALB/c mice (Charles River) with equal numbers of male and female mice (N = 15 each male and female). Six untreated mice were used for blank controls and were labeled time 0. At 20, 40, 60, and 120 min, three mice from the POM-L-BHDU-MP group and three mice from the L-BHDU group were anesthetized with inhaled isoflurane and then exsanguinated by cardiac puncture. Blood samples were collected into a tube containing heparin. Plasma was separated from red blood cells by centrifugation at 10,000 rpm for 5 min. Plasma was transferred to a new tube and immediately frozen at −80 °C.
Plasma samples were thawed, and exactly 0.95 mL was removed for analysis. The internal standard azidothymidine was added to mouse plasma samples at a final concentration of 20 ng/mL. Proteins were precipitated from the plasma by adding 2× volumes of methanol, then the samples were clarified by centrifugation. The supernatants were dried using an N-EVAP 116 analytical nitrogen evaporator and then reconstituted with 50% methanol in water. LC-MS/MS was used to analyze the concentrations of POM-L-BHDU-MP, L-BHDU, and L-BHDU-MP. Calibration curves were made using BALB/c mouse plasma (Innovative Research, Inc. Novi MI) prior to analyzing the experimental samples.
The primary stock solutions for the calibration were prepared at 0.5 mg/mL for L-BHDU, 1 mg/mL for POM-L-BHDU-MP, and 1 mg/mL for L-BHDU-MP. The primary stock solutions were diluted to working solutions that were in turn used to spike the biological matrix of interest. L-BHDU calibration points were 100.0, 400.0, 800.0, 1000.0, 4000.0, 6000.0, 8000.0, 10,000.0, and 12,000.0 ng/mL. L-BHDU-MP calibration points were 100.0, 200.0, 400.0, 800.0, 1000.0, 2000.0, 4000.0, 6000.0, and 8000.0 ng/mL. The ISTD working solution of AZT was prepared at 20 ng/mL. The standard stock solutions were stored in −80 °C freezer until used. […] The samples were analyzed in a negative ESI mode. […]

VZV [11] = tested on: VZV; design: method as in PMID 25051026; settings: VZV in human foreskin fibroblasts (HFFs); cited from earlier work
[12] = selectivity index = CC50/EC50, ARPE-19 cells

O=c1[nH]c(=O)n([C@@H]2CO[C@H](CO)O2)cc1/C=C/Br [L-BHDU (1), β-L-5-((E)-2-bromovinyl)-1-((2S,4S)-2-(hydroxymethyl)-1,3-(dioxolane-4-yl))uracil]
5-FU accumulation in treated mice [1]: did not accumulate | well tolerated up to (dose) [2]: up to 150 mg/kg | not cytotoxic up to ([3]; HFFs): up to 200 μM | EC50 (VZV-ORF57-ΔTK): > 2000 nM | EC50 (VZV-ORF57-Luc [4]): 25.8 nM | brain penetration [5]: did not penetrate the brain | SI (CC50/EC50) (VZV-ORF57-Luc [6]): >3878 | SI (CC50/EC50) (VZV-ORF57-Luc [6]; [12]): >3878 | effect on VZV replication (VZV [7]): effectively reduced VZV replication | EC50 (VZV-ORF57-Luc [8]): 180 nM | EC50 (VZV-ORF57-ΔTKTS): > 2000 nM | CC50 at 72 h [9]: > 100000 nM | EC50 (VZV-ORF57-ΔTS): 28 nM | Cmax at 2 h [10]: 7100 ng/mL | Tmax at 2 h [10]: 2 h | AUC at 2 h ([10]; 0 to 120 min): 12700 ng·h/mL

CC(C)[C@@H](N)C(=O)OC[C@H]1OC[C@@H](n2cc(/C=C/Br)c(=O)[nH]c2=O)O1.Cl [L-BHDU-L-valine (17), L-BHDU-5′-O-L-valyl Ester Hydrochloride]
CC50 [3]: > 200000 nM | EC50 (VZV-ORF57-Luc [4]): 30 nM | SI (CC50/EC50) (VZV-ORF57-Luc [6]): >3322 | EC50 (VZV-ORF57-Luc [6]; cell-free VZV-ORF57-Luc, ARPE-19 cells, 72 hpi, bioluminescence imaging): 30.1 nM | SI (CC50/EC50) (VZV-ORF57-Luc [6]; [12]): >3322 | SI (CC50/EC50) (VZV-ORF57-Luc [6]; selectivity index = CC50/EC50, ARPE-19 cells, listed as 17): > 3322 | EC50 (VZV [11]): 30 nM | CC50 at 72 h [9]: > 100000 nM
